Assay results from patent US20240269298A1, “PHOSPHONYL DERIVATIVE, AND COMPOSITION AND PHARMACEUTICAL APPLICATION THEREOF” (XIZANG HAISCO PHARMACEUTICAL CO., LTD., priority 2021, published 2024).
Read-outs that look alike come from different tables or passages of the source.

What was measured:
[1] = Pharmacokinetic test in mice; type: in vivo; conditions: male, ICR, mouse, po, administration i.g. (10 mg/kg), plasma
Method: Test objective: In this experiment, a single dose of test compounds was administered to ICR mice intravenously and intragastrically, the concentrations of the test compounds in plasma of mice were measured, and the pharmacokinetic characteristics and bioavailability of the test compounds in mice were evaluated.
Experimental animals: male ICR mice, 20-25 g, purchased from BEIJING HFK BIOSCIENCE CO., LTD. with the laboratory animal production license number of SCXK (JING) 2019-0008; or purchased from CHENGDU DDOSSY EXPERIMENTAL ANIMALS CO., LTD. (SCXK (CHUAN) 2020-030); or purchased from HUNAN SJA LABORATORY ANIMAL CO., LTD. (SCXK (XIANG) 2019-0004).
Experimental method: on the day of the experiment, ICR mice were randomly grouped according to their body weights. The mice were fasted with water available for 12 to 14 hours one day before the administration, and were fed 4 hours after the administration.
Sampling: before and after the administration, blood was taken from the orbits of the mice under isoflurane anesthesia, and placed in an EDTAK2 centrifuge tube. Centrifugation was carried out at 5000 rpm at 4° C. for 10 min, and the plasma was collected.
Time points for plasma collection in G1&G2 groups: 0, 5 min, 15 min, 30 min, 1h, 2h, 4h, 6h, 8h, and 24 h; • time points for plasma collection in G3 group: 0, 5 min, 15 min, 30 min, 1 h, 2 h, 4 h, 6h, 8h, and 24 h; • before analysis and detection, all samples were stored at −80° C. The samples were analyzed quantitatively by LC-MS/MS.

[2] = tested on: NCI-H1975 (EGFR-L858R-T790M) cells; assay: Inhibitory activity on proliferation of NCI-H1975 (EGFR-L858R-T790M) cells (CTG, 72 h); type: cell-based; conditions: Homo sapiens
Method in brief: (§1)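 Cells plated at 1000/well (NCI-H1975, RPMI1640+10% FBS) or 3000/well (A431, DMEM+10% FBS), dosed next day with compounds (0.1% DMSO final) for 72 h at 37 °C, 5% CO2. Viability by CTG luminescence, normalised to vehicle control; IC50 from nonlinear-regression dose-survival curves.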

A431 (EGFR-WT) cells = assay: Inhibitory activity on proliferation of A431 (EGFR-WT) cells (CTG, 72 h); type: cell-based; conditions: Homo sapiens, A-431
Method in brief: as §1

[3] = read-out: IC50 (value in brackets)

| Structure (SMILES) | AUC(0-t) [1] [ng·h/mL] | IC50 ([2]; read-out: IC50 (class symbol)) [nM] | IC50 [2, 3] [nM] | IC50 (A431 (EGFR-WT) cells) [µM] | AUC [1] [ng·h/mL] | half-life [1] [min] |
| --- | --- | --- | --- | --- | --- | --- |
| COc1cc(N2CCC(N3CCN(CC4CCN(c5ccc6c(c5)C(=O)N(C5CCC(=O)NC5=O)C6=O)CC4)CC3)CC2)c(-c2cnn(C)c2)cc1Nc1ncc(Br)c(Nc2ccc(C3CC3)cc2P(C)(C)=O)n1 (centres unmarked) [Compound 55, 5-(4-((4-(1-(4-((5-bromo-4-((4-cyclopropyl-2-(dimethylphosphoryl)phenyl)amino)pyrimidin-2-yl)amino)-5-methoxy-2-(1-methyl-1H-pyrazol-4-yl)phenyl)piperidin-4-yl)piperazin-1-yl)methyl)piperidin-1-yl)-2-(2,6-dioxopiperidin-3-yl)isoindoline-1,3-dione] | 19900 | < 100 | 30 | ≥ 10 |  |  |
| COc1cc(N2CCC(N3CCN(CC4CCN(c5cc6c(cc5F)C(=O)N(C5CCC(=O)NC5=O)C6=O)CC4)CC3)CC2)c(-c2cnn(C)c2)cc1Nc1ncc(Cl)c(Nc2ccc(-c3ccccc3)cc2P(C)(C)=O)n1 (centres unmarked) [Compound 93, 5-(4-((4-(1-(4-((5-chloro-4-((3-(dimethylphosphoryl)-[1,1′-biphenyl]-4-yl)amino)pyrimidin-2-yl)amino)-5-methoxy-2-(1-methyl-1H-pyrazol-4-yl)phenyl)piperidin-4-yl)piperazin-1-yl)methyl)piperidin-1-yl)-2-(2,6-dioxopiperidin-3-yl)-6-fluoroisoindoline-1,3-dione] | 4620 | < 100 | 49 | ≥ 10 |  |  |
| COc1cc(N2CCC(N3CCN(C4CC5(CCN(c6ccc7c(c6)C(=O)N(C6CCC(=O)NC6=O)C7=O)CC5)C4)CC3)CC2)c(-c2cnn(C)c2)cc1Nc1ncc(Br)c(Nc2ccc(-c3ccccc3)cc2P(C)(C)=O)n1 (centres unmarked) [Compound 63, 5-(2-(4-(1-(4-((5-bromo-4-((3-(dimethylphosphoryl)-[1,1′-biphenyl]-4-yl)amino)pyrimidin-2-yl)amino)-5-methoxy-2-(1-methyl-1H-pyrazol-4-yl)phenyl)piperidin-4-yl)piperazin-1-yl)-7-azaspiro[3.5]nonan-7-yl)-2-(2,6-dioxopiperidin-3-yl)isoindoline-1,3-dione] | 14700 | < 100 | 90 | ≥ 10 |  |  |
| COc1cc(N2CCC(N3CCN(CC4CCN(c5ccc6c(c5)C(=O)N(C5CCC(=O)NC5=O)C6=O)CC4)CC3)CC2)c(-c2cnn(C)c2)cc1Nc1ncc(Cl)c(Nc2ccc3ccccc3c2P(C)(C)=O)n1 (centres unmarked) [Compound 72, 5-(4-((4-(1-(4-((5-chloro-4-((1-(dimethylphosphoryl)naphthalen-2-yl)amino)pyrimidin-2-yl)amino)-5-methoxy-2-(1-methyl-1H-pyrazol-4-yl)phenyl)piperidin-4-yl)piperazin-1-yl)methyl)piperidin-1-yl)-2-(2,6-dioxopiperidin-3-yl)isoindoline-1,3-dione] | 16400 | < 100 | 31 | ≥ 10 |  |  |
| COc1cc(N2CCC(CN3CCC4(CCCN(c5ccc6c(c5)C(=O)N(C5CCC(=O)NC5=O)C6=O)C4)CC3)CC2)c(-c2cnn(C)c2)cc1Nc1ncc(Cl)c(Nc2ccc(-c3ccccc3)cc2P(C)(C)=O)n1 (centres unmarked) [Compound 89, 5-(9-((1-(4-((5-chloro-4-((3-(dimethylphosphoryl)-[1,1′-biphenyl]-4-yl)amino)pyrimidin-2-yl)amino)-5-methoxy-2-(1-methyl-1H-pyrazol-4-yl)phenyl)piperidin-4-yl)methyl)-2,9-diazaspiro[5.5]undecan-2-yl)-2-(2,6-dioxopiperidin-3-yl)isoindoline-1,3-dione] | 8430 | < 100 | 84 | ≥ 10 |  |  |
| COc1cc(N2CCC(CN3CCC4(CCCN(c5ccc6c(c5)C(=O)N(C5CCC(=O)NC5=O)C6=O)C4)CC3)CC2)c(-c2cnn(C)c2)cc1Nc1ncc(Br)c(Nc2ccc(-c3ccccc3)cc2P(C)(C)=O)n1 (centres unmarked) [Compound 38, 5-(9-((1-(4-((5-bromo-4-((3-(dimethylphosphoryl)-[1,1′-biphenyl]-4-yl)amino)pyrimidin-2-yl)amino)-5-methoxy-2-(1-methyl-1H-pyrazol-4-yl)phenyl)piperidin-4-yl)methyl)-2,9-diazaspiro[5.5]undecan-2-yl)-2-(2,6-dioxopiperidin-3-yl)isoindoline-1,3-dione] | 3730 | < 100 | 60 | ≥ 10 |  |  |
| COc1cc(N2CCC(CN3CCN(c4ccc5c(c4)C(=O)N(C4CCC(=O)NC4=O)C5=O)CC3)CC2)c(-c2cnn(C)c2)cc1Nc1ncc(Br)c(Nc2ccc(F)cc2P(C)(C)=O)n1 (centres unmarked) [Compound 141, 5-(4-((1-(4-((5-bromo-4-((2-(dimethylphosphoryl)-4-fluorophenyl)amino)pyrimidin-2-yl)amino)-5-methoxy-2-(1-methyl-1H-pyrazol-4-yl)phenyl)piperidin-4-yl)methyl)piperazin-1-yl)-2-(2,6-dioxopiperidin-3-yl)isoindoline-1,3-dione] |  | < 100 | 27 |  | 86600 | 355 |
| COc1cc(N2CCC(CN3CCN(c4ccc5c(c4)C(=O)N(C4CCC(=O)NC4=O)C5=O)CC3)CC2)c(-c2cnn(C)c2)cc1Nc1ncc(Cl)c(Nc2ccc(F)cc2P(C)(C)=O)n1 (centres unmarked) [Compound 142, 5-(4-((1-(4-((5-chloro-4-((2-(dimethylphosphoryl)-4-fluorophenyl)amino)pyrimidin-2-yl)amino)-5-methoxy-2-(1-methyl-1H-pyrazol-4-yl)phenyl)piperidin-4-yl)methyl)piperazin-1-yl)-2-(2,6-dioxopiperidin-3-yl)isoindoline-1,3-dione] |  | < 100 | 33 |  | 104000 | 307 |
| COc1cc(N2CCC3(CCN(CC4CCN(c5cc6c(cc5F)C(=O)N(C5CCC(=O)NC5=O)C6=O)CC4)CC3)CC2)c(-c2cnn(C)c2)cc1Nc1ncc(Br)c(Nc2ccc(-c3ccccc3)cc2P(C)(C)=O)n1 (centres unmarked) [Compound 39, 5-(4-((9-(4-((5-bromo-4-((3-(dimethylphosphoryl)-[1,1′-biphenyl]-4-yl)amino)pyrimidin-2-yl)amino)-5-methoxy-2-(1-methyl-1H-pyrazol-4-yl)phenyl)-3,9-diazaspiro[5.5]undecan-3-yl)methyl)piperidin-1-yl)-2-(2,6-dioxopiperidin-3-yl)-6-fluoroisoindoline-1,3-dione] | 6000 | < 100 | 51 |  |  |  |
| COc1cc(N2CCC(N3CCN(CC4CCN(c5ccc(C(=O)NC6CCC(=O)NC6=O)nc5)CC4)CC3)CC2)c(-c2cnn(C)c2)cc1Nc1ncc(Br)c(Nc2ccc(-c3ccccc3)cc2P(C)(C)=O)n1 (centres unmarked) [Compound 56, 5-(4-((4-(1-(4-((5-bromo-4-((3-(dimethylphosphoryl)-[1,1′-biphenyl]-4-yl)amino)pyrimidin-2-yl)amino)-5-methoxy-2-(1-methyl-1H-pyrazol-4-yl)phenyl)piperidin-4-yl)piperazin-1-yl)methyl)piperidin-1-yl)-N-(2,6-dioxopiperidin-3-yl)picolinamide] | 28600 | < 100 | 61 |  |  |  |
